Earlier results, collected in patent US8679533B2, “Pramipexole once-daily dosage form” (Pharmacia Corporation, priority 2002, dated 2014).

Settings: dihydrochloride salt, 20-25° C.

Question: For `CCCN[C@H]1CCc2nc(N)sc2C1` [pramipexole, (S)-2-amino-4,5,6,7-tetrahydro-6-(propylamino)-benzothiazole], which solubility in water is on record?
Answer: Its solubility in water is “about 200 mg/ml”.
